Experiments:
[1] = molecular target: Tyrosine-protein kinase BTK (Homo sapiens, UniProt Q06187); assay: BTK Kinase Assay
Method: (§1) 1. Reaction conditions: buffer conditions: 20 mM HEPES (pH 7.5), 10 mM MgCl2, 1 mM EGTA, 0.02% Brij35, 0.02 mg/mL BSA, 0.1 mm Na3VO4, 2 mm DTT, 1% DMSO.2. Reaction procedure:2.1. Preparing an indicator substrate in a freshly prepared reaction buffer 2.2. Delivering the desired cofactor to the above substrate solution 2.3. Delivering the indicated kinase to the substrate solution and gently mixing same 2.4. Delivering the compounds in DMSO to the kinase reaction mixture using acoustic technology (Echo550) 2.5. Initiating the reaction (final concentration of ATP: 5 μM) by delivering 33P-ATP (final specific activity: 0.01 μci/μL) to the reaction mixture 2.6. Incubating the kinase reaction at room temperature for 120 minutes 2.7. Recording the reaction on P81 ion exchange paper (Whatman #3698-915) 2.8. Washing the filter widely with 0.75% phosphoric acid 2.9. Measuring the radioactive phosphorylated substrate remaining on the filter paper. 3.Data analysis: the kinase activity data is expressed as the percentage of the remaining kinase activity in a test sample compared to a reaction with a carrier (dimethyl sulfoxide), and IC50 values and curve fitting are obtained using Prism4 software (GraphPad).

[2] = molecular target: Epidermal growth factor receptor (Homo sapiens, UniProt P00533); assay: EGFR, ITK and TEC Kinase Assay
Method: as §1, with “DMSO. 2.” for “DMSO.2.”, “ATP: 2 μM,” for “ATP:”, “μM and 5 μM respectively)” for “μM)”, “3. Data” for “3.Data”

[3] = molecular target: T1, Tyrosine-protein kinase ITK/TSK (Homo sapiens, UniProt Q08881)
T1 sequence (Q08881 whole entry): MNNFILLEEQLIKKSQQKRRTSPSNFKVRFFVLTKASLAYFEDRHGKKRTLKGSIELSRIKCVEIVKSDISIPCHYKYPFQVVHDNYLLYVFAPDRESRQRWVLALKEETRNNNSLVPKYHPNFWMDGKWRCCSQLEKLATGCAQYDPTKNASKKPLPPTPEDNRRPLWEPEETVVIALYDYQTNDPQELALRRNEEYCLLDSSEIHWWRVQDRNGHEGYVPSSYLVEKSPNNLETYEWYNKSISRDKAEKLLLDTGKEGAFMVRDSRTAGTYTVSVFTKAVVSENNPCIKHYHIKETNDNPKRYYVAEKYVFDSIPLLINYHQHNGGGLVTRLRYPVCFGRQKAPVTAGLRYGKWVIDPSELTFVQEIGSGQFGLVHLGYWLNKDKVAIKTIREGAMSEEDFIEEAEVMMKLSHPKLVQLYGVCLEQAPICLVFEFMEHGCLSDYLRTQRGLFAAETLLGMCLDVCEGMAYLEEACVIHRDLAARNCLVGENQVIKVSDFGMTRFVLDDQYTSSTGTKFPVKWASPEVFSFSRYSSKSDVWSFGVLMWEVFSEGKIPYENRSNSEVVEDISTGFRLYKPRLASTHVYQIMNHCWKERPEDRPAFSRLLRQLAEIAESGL

[4] = molecular target: T2, Tyrosine-protein kinase Tec (Homo sapiens, UniProt P42680)
T2 sequence (P42680 whole entry): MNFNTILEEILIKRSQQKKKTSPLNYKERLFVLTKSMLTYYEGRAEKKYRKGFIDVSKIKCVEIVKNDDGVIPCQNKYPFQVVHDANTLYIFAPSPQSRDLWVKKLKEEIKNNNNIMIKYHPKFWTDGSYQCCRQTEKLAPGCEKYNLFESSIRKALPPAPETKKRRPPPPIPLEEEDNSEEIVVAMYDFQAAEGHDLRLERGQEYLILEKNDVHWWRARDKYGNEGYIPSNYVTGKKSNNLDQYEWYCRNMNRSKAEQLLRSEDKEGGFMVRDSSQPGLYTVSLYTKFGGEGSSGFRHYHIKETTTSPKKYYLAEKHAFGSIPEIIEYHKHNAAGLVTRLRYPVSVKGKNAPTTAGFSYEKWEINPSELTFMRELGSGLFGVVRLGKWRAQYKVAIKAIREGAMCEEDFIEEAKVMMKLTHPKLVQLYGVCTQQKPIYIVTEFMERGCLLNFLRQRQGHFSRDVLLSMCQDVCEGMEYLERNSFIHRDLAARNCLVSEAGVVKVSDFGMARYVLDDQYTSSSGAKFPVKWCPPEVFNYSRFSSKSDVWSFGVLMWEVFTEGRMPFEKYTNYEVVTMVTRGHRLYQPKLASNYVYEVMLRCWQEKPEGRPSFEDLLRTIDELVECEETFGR

Tyrosine-protein kinase BTK, sequence (Q06187 whole entry): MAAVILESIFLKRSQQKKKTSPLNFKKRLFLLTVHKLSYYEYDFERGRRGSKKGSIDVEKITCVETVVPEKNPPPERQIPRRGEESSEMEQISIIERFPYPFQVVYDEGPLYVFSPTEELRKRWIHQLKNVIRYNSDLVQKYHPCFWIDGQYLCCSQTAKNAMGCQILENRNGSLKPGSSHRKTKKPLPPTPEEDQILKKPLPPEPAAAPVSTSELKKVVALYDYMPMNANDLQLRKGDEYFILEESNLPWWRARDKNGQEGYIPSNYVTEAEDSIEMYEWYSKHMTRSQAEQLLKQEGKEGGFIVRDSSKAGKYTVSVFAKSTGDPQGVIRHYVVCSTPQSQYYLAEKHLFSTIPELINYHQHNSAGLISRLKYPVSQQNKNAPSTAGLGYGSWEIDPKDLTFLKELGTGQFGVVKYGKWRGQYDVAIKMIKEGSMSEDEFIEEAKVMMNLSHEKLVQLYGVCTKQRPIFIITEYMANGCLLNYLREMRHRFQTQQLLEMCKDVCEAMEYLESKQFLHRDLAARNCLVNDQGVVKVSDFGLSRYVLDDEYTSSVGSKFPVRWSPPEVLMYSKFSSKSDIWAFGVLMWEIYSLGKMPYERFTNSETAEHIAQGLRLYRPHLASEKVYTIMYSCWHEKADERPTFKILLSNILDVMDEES
Epidermal growth factor receptor, sequence (P00533 whole entry): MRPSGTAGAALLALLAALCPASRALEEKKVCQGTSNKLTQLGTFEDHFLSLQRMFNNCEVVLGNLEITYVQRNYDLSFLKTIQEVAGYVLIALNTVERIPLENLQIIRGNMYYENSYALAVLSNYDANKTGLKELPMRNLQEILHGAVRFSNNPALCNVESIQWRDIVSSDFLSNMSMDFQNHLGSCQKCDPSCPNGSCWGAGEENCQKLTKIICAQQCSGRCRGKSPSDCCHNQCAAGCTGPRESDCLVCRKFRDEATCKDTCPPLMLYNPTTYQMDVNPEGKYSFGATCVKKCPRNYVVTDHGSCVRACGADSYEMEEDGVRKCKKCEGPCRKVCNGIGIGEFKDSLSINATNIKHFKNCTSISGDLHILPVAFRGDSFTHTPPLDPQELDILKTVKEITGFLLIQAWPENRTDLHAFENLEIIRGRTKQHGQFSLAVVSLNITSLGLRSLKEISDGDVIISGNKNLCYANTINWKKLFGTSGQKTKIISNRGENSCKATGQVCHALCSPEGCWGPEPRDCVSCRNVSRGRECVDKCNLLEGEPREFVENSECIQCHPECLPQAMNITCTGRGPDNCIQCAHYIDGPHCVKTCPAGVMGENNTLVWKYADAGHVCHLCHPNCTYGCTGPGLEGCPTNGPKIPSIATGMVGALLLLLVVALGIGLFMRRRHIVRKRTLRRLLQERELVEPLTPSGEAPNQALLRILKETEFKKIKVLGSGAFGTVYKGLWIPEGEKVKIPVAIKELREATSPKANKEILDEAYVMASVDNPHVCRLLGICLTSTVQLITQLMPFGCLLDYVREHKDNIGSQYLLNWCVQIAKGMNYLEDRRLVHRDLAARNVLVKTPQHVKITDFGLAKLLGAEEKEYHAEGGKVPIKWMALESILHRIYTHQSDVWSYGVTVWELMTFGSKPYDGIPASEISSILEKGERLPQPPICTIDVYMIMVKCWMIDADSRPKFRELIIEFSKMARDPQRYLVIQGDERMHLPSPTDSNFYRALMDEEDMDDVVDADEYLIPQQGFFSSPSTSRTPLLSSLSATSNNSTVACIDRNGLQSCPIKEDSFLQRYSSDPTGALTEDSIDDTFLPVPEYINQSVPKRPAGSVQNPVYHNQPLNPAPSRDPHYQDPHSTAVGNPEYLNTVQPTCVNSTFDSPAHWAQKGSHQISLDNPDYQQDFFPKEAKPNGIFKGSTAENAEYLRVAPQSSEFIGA

Structure (SMILES)	IC50 [1]	IC50 [2]	IC50 [3]	IC50 [4]
C=CC(=O)N1CCC[C@@H](c2nn(-c3ccc(Oc4ccccc4)cc3)c3c(N)nccc23)C1 [US11739090, Compound 7A]	0.73 nM	14.5 nM	42.2 nM	3.39 nM
C=CC(=O)N1CCC[C@H](c2nn(-c3ccc(Oc4ccccc4)cc3)c3c(N)nccc23)C1 [US11739090, Compound 7B]	0.93 nM	33.3 nM	1450 nM	3.74 nM

Reference: BindingDB's records for patent US11739090 (Jumbo Drug Bank, 2023)
